Earlier results on one compound are cited in patent US20240287015A1, “Method for Producing an Ionizable Lipid” (NanoVation Therapeutics Inc., priority 2021, published 2024).

The conditions of this data set: siRNA LNP formulations; MC3 relative to similar KC2-based formulations.

On to `CCCCC/C=C\C/C=C\CCCCCCCCC(CCCCCCCC/C=C\C/C=C\CCCCC)OC(=O)CCCN(C)C` [MC3, (6Z,9Z,28Z,31Z)-heptatriacont-6,9,28,31-tetraene-19-yl 4-(dimethylamino)butanoate], for which the “times less siRNA required than KC2 to attain the same end result” value is “about 3 times”.
